Results from patent EP4653435A1, “PRMT5-MTA INHIBITOR” (Suzhou Puhe Biopharma Co., Ltd., priority 2023, dated 2024).

Experiments:
HCT116-MTAPdel = test: 2D antiproliferative assay (CTG cell viability), MTAP-deficient cells; type: cell-based; settings: for IC50: Homo sapiens, HCT-116, HCT116 MTAP-deficient cells, 7-10 days, CTG, read-out: HCT116-MTAPdel/IC50/nM; for HCT116WT IMTAPdel selectivity: ratio IC50 wild type / MTAPdel, antiproliferation
Procedure: (§1) HCT116 wild-type and MTAP-deficient cells were cultured in McCoy's 5A medium containing 10% FBS and 1% penicillin-streptomycin, and cultured in a 37°C, 5% CO2 constant temperature incubator. 40 µL of cell suspension was introduced into each well of a 384-well microplate. 40 nL of different concentrations of test compounds were added to each well using an Echo, before culturing in a 37°C, 5% CO2 constant temperature incubator for 7-10 days. 40 µL of CTG solution (Promega, Cat No. G7573) was added to each well and incubated in a 37°C, 5% CO2 constant temperature incubator for 30 minutes in the dark.

HCT116-MTAPwt = test: 2D antiproliferative assay (CTG cell viability), wild-type cells; type: cell-based; settings: Homo sapiens, HCT-116, 7-10 days
Procedure: as §1

[1] = Liver microsomal stability assay, human
Procedure: The compounds to be tested were co-incubated with liver microsomes of different species with or without the addition of NADPH. The final concentration of the test compounds in the test system was 1 µM, the final concentration of NADPH was 1 mM, and the final concentration of liver microsomes was 0.5 mg/mL.

Structure (SMILES) | IC50 (HCT116-MTAPdel) | HCT116WT IMTAPdel selectivity (HCT116-MTAPdel) | IC50 (HCT116-MTAPwt) | CLint scaled at 1 h, 1 µM ([1]; liver microsomes) | CLint scaled at 1 h, 1 µM ([1]; microsomes)
CC1CCC(c2ccc3sc(C4CCN(C)CC4)nc3c2)N(C(=O)C(=O)Nc2cnc(N)c3c2cnn3C)C1 (racemic) [Compound P5] | 4 nM | 9 | 36 nM | 10.7 mL/min/kg | 
C[C@H]1COC[C@@H](c2ccc(C(F)(F)F)cn2)N1C(=O)C(=O)Nc1cnc(N)c2c1cnn2C (racemic) [Compound P11] | 15 nM | 57 | 855 nM |  | 16.5 mL/min/kg
C[C@H]1COC[C@@H](c2ccc(-c3cncc(Cl)c3)cn2)N1C(=O)C(=O)Nc1cnc(N)c2c1cnn2C [Compound P13a] | 616 nM | >16 | > 10000 nM |  | 
C[C@@H]1COC[C@H](c2ccc(-c3cncc(Cl)c3)cn2)N1C(=O)C(=O)Nc1cnc(N)c2c1cnn2C [Compound P13b] | 2 nM | 253 | 506 nM |  | 
CCN(C(=O)C(=O)Nc1cnc(N)c2c1cnn2C)[C@H]1COc2cc(C(F)(F)F)ccc21 [Compound P19b] | 261 nM | 15 | 3860 nM |  | 
Cn1ncc2c(NC(=O)C(=O)N(CC(F)(F)F)[C@H]3COc4cc(C(F)(F)F)ccc43)cnc(N)c21 [Compound P20b] | 883 nM | 11 | > 10000 nM |  | 
Cn1ncc2c(NC(=O)C(=O)N(C3CC3)[C@H]3COc4cc(C(F)(F)F)ccc43)cnc(N)c21 [Compound P21a] | 978 nM | 10 | > 10000 nM |  | 
Cn1ncc2c(NC(=O)C(=O)N(C3CC3)[C@@H]3COc4cc(C(F)(F)F)ccc43)cnc(N)c21 [Compound P21b] | 6 nM | 141 | 847 nM |  | 
[2H]C([2H])([2H])n1ncc2c(NC(=O)C(=O)N(C)[C@@H]3COc4cc(C(F)(F)F)ccc43)cnc(N)c21 [Compound P23] | 17 nM | 101 | 1710 nM |  | 
CCn1ncc2c(NC(=O)C(=O)N(C)[C@@H]3COc4cc(C(F)(F)F)ccc43)cnc(N)c21 [Compound P24] | 2410 nM | >4 | > 10000 nM |  | 
CCn1ncc2c(NC(=O)C(=O)N(C)[C@@H]3COCc4nc(C(F)(F)F)ccc43)cnc(N)c21 [Compound P25] | 1260 nM | >8 | > 10000 nM |  | 
[2H]C([2H])([2H])n1ncc2c(NC(=O)C(=O)N(C)[C@@H]3COCc4nc(C(F)(F)F)ccc43)cnc(N)c21 [Compound P26] | 12 nM | 380 | 4550 nM |  | 
[2H]C([2H])([2H])N(C(=O)C(=O)Nc1cnc(N)c2c1cnn2C)[C@@H]1COCc2nc(C(F)(F)F)ccc21 [Compound P27] | 15 nM | 141 | 2110 nM |  | 
CCN(C(=O)C(=O)Nc1cnc(N)c2c1cnn2C)[C@H]1COCc2nc(C(F)(F)F)ccc21 [Compound P28a] | 986 nM | 2 | 2340 nM |  | 
CN(C(=O)C(=O)Nc1cnc(N)c2c1cnn2C)[C@@H]1COc2cc(OC(F)(F)F)ccc21 [Compound P30a] | 7 nM | 221 | 1550 nM |  | 
CN(C(=O)C(=O)Nc1cnc(N)c2c1cnn2C)[C@H]1COc2cc(OC(F)(F)F)ccc21 [Compound P30b] | 191 nM | >52 | > 10000 nM |  | 
CSc1ccc2c(c1)OCC2N(C)C(=O)C(=O)Nc1cnc(N)c2c1cnn2C (centres unmarked) [Compound P31] | 21 nM | 171 | 3580 nM |  | 
CC(=O)N1CCC(Nc2cc(C(=O)NC[C@H](O)CN3CCc4ccccc4C3)ncn2)CC1 [GSK3326595, reference compound] | 17 nM | 4 | 72 nM |  | 
